The text below walks through data of ChEMBL document CHEMBL1201862, “PubChem BioAssay data set” (2004).

Some test systems named below: M14; COLO 205; SNB-78; Malme-3M; HT-29; SK-MEL-28; HOP-62; OVCAR-5; HOP-92; SK-OV-3; A498; HCC 2998; U-251; NCI/ADR-RES; SR; MCF7; DU-145; SK-MEL-2; T47D; Hs-578T.
Holding throughout (test): NCI tumour cell line growth inhibition, 48 h

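Values below derive from 48-hour exposures of cells grown in 96-well plates, with endpoints linearly interpolated between the two concentrations bracketing the appropriate inhibition level. The concentration for 50% growth inhibition is given as GI50.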 Active and inactive are the calls of the source. Cut-off read from the data, not from the text of the source: active = GI50 up to about 1.1 µM and inactive = higher. Where only a bound is given, the exact number is not on record here.

As to `COc1ccc2nc(-c3ccccn3)cc(O)c2c1`, the GI50 was 24.2 µM (inactive) with M14; 28 µM (inactive) with COLO 205; 99.3 µM (inactive) with SNB-78; 24 µM (inactive) in the assay with Malme-3M; 42.8 µM (inactive) with HT-29; 35.5 µM (inactive) in the assay on SK-MEL-28. Further, the GI50 in the assay with HOP-62 is > 100 µM (inactive); in the assay on OVCAR-5 it was > 100 µM (inactive); in the assay with HOP-92 it was 43.9 µM (inactive); in the assay with SK-OV-3, 52.7 µM (inactive).

In the case of `C=CC[C@@]12CCC(=O)C=C1CCCC2=O`, the GI50 with M14, with A498, in the assay with COLO 205, with HCC 2998, in the assay with Malme-3M and with HT-29 was > 100 µM (inactive) in each case. Moreover, the GI50 in the assay with SK-MEL-28, in the assay on HOP-62, in the assay on U-251, with NCI/ADR-RES, with OVCAR-5 and in the assay on SR was > 100 µM (inactive) throughout. Also, the GI50 in the assay on HOP-92, in the assay on SK-OV-3, with MCF7, in the assay on DU-145, in the assay on SK-MEL-2 and in the assay on T47D was > 100 µM (inactive) throughout. Also, in the assay with Hs-578T, the GI50 was > 100 µM (inactive).

In the case of `CC(=O)NC1C(OCc2ccccc2)OC(COC(=O)CCCCCCCCCCNC(=O)c2cccc3c(=O)c4ccccc4[nH]c23)C(O)C1OC(C)C(=O)NC(C)C(=O)NC(CCC(N)=O)C(N)=O` (configuration not stated), the GI50 is > 100 µM (inactive) in the assay on M14; 98.6 µM (inactive) in the assay with A498; 85.3 µM (inactive) in the assay with COLO 205; 99.1 µM (inactive) in the assay with SNB-78; 75.9 µM (inactive) in the assay with HT-29; 47.3 µM (inactive) in the assay with SK-MEL-28. In addition, the GI50 with HOP-62 is > 100 µM (inactive); with U-251, 69.5 µM (inactive); in the assay with OVCAR-5, > 100 µM (inactive); in the assay with SR, 40.1 µM (inactive); with SK-OV-3, > 100 µM (inactive); in the assay with SK-MEL-2, 50.8 µM (inactive).

Take `S=c1cc(S)c2c(=S)sc3nc4ccccn4c(=S)c3c2s1`: the GI50 in the assay on M14 was 35.8 µM (inactive); in the assay on A498, > 100 µM (inactive); with SNB-78, > 100 µM (inactive); with HCC 2998, 39.5 µM (inactive); with Malme-3M it was > 100 µM (inactive); with HT-29 it was 45.2 µM (inactive). The GI50 with SK-MEL-28 is > 100 µM (inactive); with U-251, 54.5 µM (inactive); in the assay with OVCAR-5, > 100 µM (inactive); with SR, 25.9 µM (inactive); with HOP-92 it was > 100 µM (inactive); with SK-MEL-2, 56.2 µM (inactive).

With `COc1ccc(C2CC(c3cc(C)ccc3O)=NC(N)=N2)cc1` (configuration not stated), the GI50 with M14, with A498, in the assay on COLO 205, with SNB-78, in the assay with HCC 2998 and in the assay with Malme-3M was > 100 µM (inactive) throughout. The GI50 in the assay on HT-29, with SK-MEL-28, in the assay with HOP-62, in the assay with U-251, in the assay on OVCAR-5 and with SR was > 100 µM (inactive) each time. Also, the GI50 in the assay with HOP-92 and with SK-OV-3 was > 100 µM (inactive) throughout.

For `COC(=O)c1cc2c(c(C(=O)OC)c1O)C(=O)C=CC2=O`, the GI50 with M14 is > 44.9 µM (inactive); in the assay with A498, > 41.1 µM (inactive); in the assay on COLO 205, > 50.2 µM (inactive); in the assay on SNB-78, > 42.8 µM (inactive); in the assay with HCC 2998 it was > 43.1 µM (inactive); in the assay on Malme-3M, > 40.8 µM (inactive). Besides, the GI50 in the assay with HT-29 was > 9.1 µM (inactive); with SK-MEL-28, > 39.9 µM (inactive); in the assay with HOP-62, 30 µM (inactive); in the assay with U-251 it was 40.7 µM (inactive); with OVCAR-5, > 40.4 µM (inactive); with HOP-92, 8.2 µM (inactive). In addition, the values for the GI50 with SK-OV-3 and in the assay on SK-MEL-2 were > 89.5 µM (inactive) and > 9.1 µM (inactive), respectively.

As to `O=C(CSc1nnc(-c2ccc(/N=C\c3ccc(Cl)cc3)cc2)o1)Nc1ccc(Cl)cc1`, the GI50 in the assay on M14, in the assay with COLO 205, with SNB-78, in the assay with Malme-3M, in the assay on HT-29 and with SK-MEL-28 was > 100 µM (inactive) in each case. The GI50 with HOP-62, in the assay with U-251, in the assay with SR, with SK-OV-3 and in the assay on SK-MEL-2 was > 100 µM (inactive) in each case.

For the compound `N#C/C(=C/c1cccnc1)C(=O)c1ccccc1`, the GI50 with M14, in the assay with COLO 205, in the assay with SNB-78, in the assay with HCC 2998, in the assay with Malme-3M and in the assay with HT-29 was > 100 µM (inactive) throughout. The GI50 in the assay on SK-MEL-28, in the assay with HOP-62, with U-251, with OVCAR-5, in the assay with SR and with HOP-92 was > 100 µM (inactive) each time. Besides, the GI50 in the assay with SK-OV-3 and with SK-MEL-2 was > 100 µM (inactive) throughout.

For the compound `Cc1ccc([S+]([O-])C(C)C(Cl)c2ccccc2)cc1` (configuration not stated), the GI50 in the assay with M14 was > 100 µM (inactive); with A498 it was > 100 µM (inactive); in the assay with COLO 205 it was 30.7 µM (inactive); in the assay on SNB-78 it was > 100 µM (inactive); with HCC 2998 it was > 100 µM (inactive); in the assay with HT-29 it was 38.8 µM (inactive). Further, the GI50 with SK-MEL-28 was > 100 µM (inactive); in the assay on HOP-62, > 100 µM (inactive); in the assay on U-251, 35.6 µM (inactive); in the assay on OVCAR-5 it was > 100 µM (inactive); in the assay with SR it was 99.3 µM (inactive); in the assay with HOP-92, > 100 µM (inactive). Besides, the GI50 with SK-OV-3 and in the assay on SK-MEL-2 was > 100 µM (inactive) throughout.

`CSc1nc(SC)c2c(C(N)=S)n[nH]c2n1`: the GI50 in the assay with M14 is 31.9 µM (inactive); with A498 it was 24.5 µM (inactive); with COLO 205 it was 18.2 µM (inactive); with SNB-78, 31.8 µM (inactive); with Malme-3M it was 29.8 µM (inactive); with HT-29 it was 33 µM (inactive). The GI50 with SK-MEL-28 is 31.7 µM (inactive); in the assay on HOP-62, 23.2 µM (inactive); in the assay on U-251, 23 µM (inactive); in the assay with SR it was 30.7 µM (inactive); with HOP-92 it was 25.2 µM (inactive); in the assay with SK-OV-3, 23.6 µM (inactive). Further, the GI50 in the assay with SK-MEL-2 is 24 µM (inactive).

Take `Cc1cccc(CC(Cc2ccc(C)cc2C(=O)O)C(=O)O)c1` (configuration not stated): the GI50 with M14, in the assay on A498, with COLO 205, in the assay with HCC 2998, in the assay on Malme-3M and in the assay with HT-29 was > 100 µM (inactive) each time. Also, the GI50 in the assay on SK-MEL-28, in the assay with HOP-62, with U-251, in the assay with NCI/ADR-RES, in the assay with OVCAR-5 and in the assay on SR was > 100 µM (inactive) each time. Besides, the GI50 in the assay on HOP-92 is > 100 µM (inactive); in the assay with SK-OV-3, 74.1 µM (inactive); in the assay on MCF7, > 100 µM (inactive); in the assay with DU-145 it was > 100 µM (inactive); in the assay on SK-MEL-2 it was > 100 µM (inactive); in the assay on T47D, > 100 µM (inactive). Moreover, in the assay on Hs-578T, the GI50 is > 100 µM (inactive).

As for `CCOC(=O)C1(O)C(=O)C2=C3C(=O)OC(C4OC(=O)c5c(c(O)c(O)c(O)c5C31)-c1c(cc(O)c(O)c1O)C(=O)OC1COC(=O)c3cc(O)c(O)c(O)c3-c3c(cc(O)c(O)c3O)C(=O)OC14)[C@@H]2O` (some centres not stated), the GI50 was 21.8 µM (inactive) in the assay with M14; > 100 µM (inactive) in the assay with A498; 15.7 µM (inactive) in the assay with COLO 205; 25.7 µM (inactive) in the assay with HCC 2998; 26.9 µM (inactive) with Malme-3M; 18.5 µM (inactive) in the assay on HT-29. Moreover, the GI50 in the assay with SK-MEL-28 was > 100 µM (inactive); in the assay on HOP-62, 36.5 µM (inactive); in the assay on U-251 it was 19.2 µM (inactive); in the assay with NCI/ADR-RES, 27.6 µM (inactive); in the assay with OVCAR-5 it was 15.9 µM (inactive); in the assay with SR it was 30.8 µM (inactive). In addition, the GI50 in the assay on HOP-92 was 23 µM (inactive); in the assay with SK-OV-3 it was 61.8 µM (inactive); in the assay with MCF7, 18.7 µM (inactive); in the assay on DU-145 it was 31 µM (inactive); in the assay with SK-MEL-2, 25.7 µM (inactive); in the assay on T47D it was 24.8 µM (inactive). In addition, in the assay on Hs-578T, the GI50 was 30.8 µM (inactive).

`[N-]=[N+]=NC1C(Br)C(=O)NC(=O)N1[C@H]1C[C@H](O)[C@@H](CO)O1` (some centres not stated): the GI50 with M14, in the assay on A498, in the assay on COLO 205, in the assay on SNB-78, with HCC 2998 and in the assay with HT-29 was > 100 µM (inactive) in each case. The GI50 in the assay on SK-MEL-28, with HOP-62, with U-251, with OVCAR-5, with HOP-92 and in the assay with SK-OV-3 was > 100 µM (inactive) each time. In addition, the GI50 in the assay on SK-MEL-2 was > 100 µM (inactive).

On to `COc1cc2c(c3c1c(=O)c1ccccc1n3C)C=CC(C)(C)O2` [ACRONINE], for which the GI50 was > 100 µM (inactive) in the assay on M14; > 100 µM (inactive) in the assay with COLO 205; > 100 µM (inactive) with SNB-78; > 100 µM (inactive) in the assay on Malme-3M; 56.9 µM (inactive) with HT-29; 48.6 µM (inactive) in the assay with SK-MEL-28. For the same compound, the GI50 was 46.9 µM (inactive) in the assay on HOP-62; > 100 µM (inactive) in the assay with U-251; > 100 µM (inactive) in the assay with OVCAR-5; 0.885 µM (active) in the assay with SR; > 100 µM (inactive) in the assay on HOP-92; > 100 µM (inactive) in the assay with SK-OV-3. Also, the GI50 in the assay on SK-MEL-2 was > 100 µM (inactive).
